We go through 20 compounds from ChEMBL document CHEMBL1138495, “Inhibition of subgenomic hepatitis C virus RNA replication by acridone derivatives: identification of an NS3 helicase inhibitor” (J Med Chem, 2009).

Each structure is given as a SMILES string. In brackets after ≈: the same amount, converted by molar mass. Activity calls are given as the source filed them. The rule behind the calls is not given here.

One series has as its system Hepatitis C virus. The experiment in a line: Antiviral activity against HCV infected in human HuH5.2 assessed as inhibition of viral RNA synthesis after 4 days by Steady-Glo-luciferase assay. The format is functional, organism-based, Hepacivirus hominis. Particulars: Huh-5-2, 96 h.
The nature of series [1]: Cytostatic activity against human HuH5.2 after 3 days by MTS/PMS assay. The format is ADME, Huh-5-2. Particulars: HuH5.2 cells.
The test system of another series is Hepacivirus hominis. The series can be described thus: Inhibition of HCV recombinant NS5B RNA polymerase expressed in Escherichia coli up to 100 uM by liquid scintillation counter.
The nature of series [2]: Inhibition of ATPase activity of HCV […] expressed in Escherichia coli. Details: species or system Hepacivirus hominis.
The test system of series [3] is Bovine viral diarrhea virus 1. The experiment in a line: Antiviral activity against Bovine viral diarrhea virus infected in MDBK cells assessed as inhibition of virus-induced cytopathic effect after 4 to 5 days by microscopy. The format is functional, organism-based. Particulars: Bovine viral diarrhea virus isolates and strains. On the technique in general: Cytopathic effects are the visible damage that an infection or toxin causes in cultured cells.

Series [4] in a line: Cytotoxicity against MDBK cells after 3 days by MTS/PMS method. Particulars: cattle. Format: cell-based, Bos taurus.

In the case of `Nc1cc2c(=O)c3c(O)cc(O)cc3[nH]c2cc1Cl`, the EC50 in the series on Hepatitis C virus amounted to 19 µg/mL (≈ 68.7 µM). Besides, the CC50 at 72 h in series [1] came out at 25 µg/mL (≈ 90.4 µM). The result in the series on Hepacivirus hominis was inactive. Further, the IC50 in series [2] is > 1000 µM.

Take `COc1cc2c(=O)c3cc(N)c(N4CCN(c5ccccn5)CC4)cc3n(C)c2cc1OC`: the EC50 in the series with Hepatitis C virus came to 6 µg/mL (≈ 13.5 µM). In addition, the midpoint of cytotoxicity in series [1], the CC50 at 72 h, lay at 14 µg/mL (≈ 31.4 µM). Also, the result in the series on Hepacivirus hominis was inactive. Besides, in series [2], the half-maximal inhibitory concentration (IC50) was > 1000 µM.

In the case of `COc1cc(OC)cc(N(C)c2cc(N3CCN(c4ccccn4)CC3)c(N)cc2C(=O)O)c1`, in the series on Hepatitis C virus, the EC50 is > 50 µg/mL. The CC50 at 72 h in series [1] is > 50 µg/mL. Moreover, in the series with Hepacivirus hominis, the result was inactive. In series [2], the IC50 is > 1000 µM.

Regarding `COc1cc(OC)c2c(=O)c3cc(N)c(Cl)cc3n(C)c2c1`, the EC50 is > 100 µg/mL in series [3] and 20 µg/mL (≈ 62.7 µM) in the series with Hepatitis C virus. In addition, the CC50 at 72 h was > 50 µg/mL in series [1] and 20 µg/mL (≈ 62.7 µM) in series [4]. In the series on Hepacivirus hominis, the result was inactive. Also, the IC50 in series [2] is > 1000 µM.

For `COc1cc(O)c2c(=O)c3cc(N)c(N4CCN(c5nc6ccccc6o5)CC4)cc3n(C)c2c1`, the EC50 in the series on Hepatitis C virus came to 50 µg/mL (≈ 106 µM). Moreover, the CC50 at 72 h in series [1] was > 50 µg/mL. Besides, the outcome in the series on Hepacivirus hominis was inactive. The IC50 in series [2] was > 1000 µM.

Turning to `COc1cc(OC)c2c(=O)c3cc(N)c(N4CCN(c5ncccn5)CC4)cc3n(C)c2c1`, in the series on Hepatitis C virus, the EC50 was > 50 µg/mL. In series [1], the CC50 at 72 h is > 50 µg/mL. For the same compound, the outcome with Hepacivirus hominis was inactive. Further, the IC50 in series [2] is > 1000 µM.

As for `Cn1ccc(=O)c2cc(N)c(N3CCN(c4ccccn4)CC3)cc21`, in the series with Hepatitis C virus, the EC50 stood at 11 µg/mL (≈ 32.8 µM). The CC50 at 72 h in series [1] is > 33 µg/mL. Also, the outcome in the series with Hepacivirus hominis was inactive. Further, in series [2], the IC50 is > 1000 µM.

Turning to `COc1cc(OC)c2c(=O)c3cc(N(C)C)c(N4CCN(c5ccccn5)CC4)cc3n(C)c2c1`, the EC50 in the series on Hepatitis C virus turned out to be 1 µg/mL (≈ 2.11 µM). The CC50 at 72 h in series [1] came out at 3 µg/mL (≈ 6.33 µM). In the series with Hepacivirus hominis, the outcome was inactive. Besides, the IC50 in series [2] was > 1000 µM.

`COc1cc(OCC(=O)O)c2c(=O)c3cc(N)c(N4CCN(c5ccccn5)CC4)cc3n(C)c2c1`: the EC50 in the series on Hepatitis C virus is 35 µg/mL (≈ 71.5 µM). Also, the CC50 at 72 h in series [1] was > 50 µg/mL. For the same compound, the outcome in the series on Hepacivirus hominis was inactive. Further, the IC50 in series [2] is > 1000 µM.

Regarding `Cn1c2cc(N3CCN(c4ccccc4)CC3)c(N)cc2c(=O)c2c(O)cc(O)cc21`, the concentration giving a half-maximal response (EC50) in the series on Hepatitis C virus was 4.4 µg/mL (≈ 10.6 µM). This compound came in with a CC50 at 72 h in series [1] of 16.2 µg/mL (≈ 38.9 µM). Further, in the series on Hepacivirus hominis, the result was inactive. Moreover, the IC50 in series [2] is > 1000 µM.

For the compound `CCn1c2cc(Cl)c(N)cc2c(=O)c2c(O)cc(OC)cc21`, in the series on Hepatitis C virus, the EC50 is 4.5 µg/mL (≈ 14.1 µM). Further, the CC50 at 72 h in series [1] was > 50 µg/mL. Moreover, the result with Hepacivirus hominis was inactive. Also, the IC50 in series [2] was > 1000 µM.

For the compound `Cn1c2ccccc2c(=O)c2cc(N)c(N3CCN(c4ccccn4)CC3)cc21`, in the series with Hepatitis C virus, the EC50 is 4 µg/mL (≈ 10.4 µM). The compound also yielded a CC50 at 72 h in series [1] of 29 µg/mL (≈ 75.2 µM). Besides, in the series on Hepacivirus hominis, the outcome was inactive. The IC50 in series [2] is > 1000 µM.

On to `COc1cccc2c1c(=O)c1cc(N)c(N3CCN(c4ccccn4)CC3)cc1n2C`, for which the EC50 in the series with Hepatitis C virus is 12.5 µg/mL (≈ 30.1 µM). In series [1], the midpoint of cytotoxicity, the CC50 at 72 h, lay at 28.5 µg/mL (≈ 68.6 µM). For the same compound, the outcome in the series on Hepacivirus hominis was inactive. Also, in series [2], the half-maximal inhibitory concentration (IC50) was > 1000 µM.

As for `COc1ccc(C(=O)c2ccc(N3CCN(c4ccccn4)CC3)c(N)c2)c(O)c1`, the EC50 with Hepatitis C virus amounted to 3.7 µg/mL (≈ 9.15 µM). Further, the CC50 at 72 h in series [1] is > 50 µg/mL. For the same compound, the outcome in the series on Hepacivirus hominis was inactive. In addition, the IC50 in series [2] was > 1000 µM.

In the case of `COc1cc2c(cc1N)c(=O)c1c(O)cc(O)cc1n2C`, the EC50 with Hepatitis C virus came out at 5 µg/mL (≈ 17.5 µM). In series [1], this compound had a CC50 at 72 h of 26 µg/mL (≈ 90.8 µM). For the same compound, the outcome in the series on Hepacivirus hominis was inactive. The IC50 in series [2] was > 1000 µM.

In the case of `COc1cc(O)c2c(=O)c3cc(N)c(N4CCN(c5ccccc5)CC4)cc3n(C)c2c1`, in the series on Hepatitis C virus, the EC50 worked out at 2.03 µg/mL (≈ 4.72 µM). In series [1], this compound registered a CC50 at 72 h of 8.5 µg/mL (≈ 19.7 µM). In addition, in the series on Hepacivirus hominis, the outcome was inactive. For the same compound, in series [2], the IC50 was > 1000 µM.

`CCn1c2cc(N3CCN(c4ccccn4)CC3)c(N)cc2c(=O)c2c(OC)cc(OC)cc21`: the EC50 with Hepatitis C virus is 4 µg/mL (≈ 8.7 µM). Moreover, in series [1], the midpoint of cytotoxicity, the CC50 at 72 h, lay at 11 µg/mL (≈ 23.9 µM). For the same compound, the result in the series on Hepacivirus hominis was inactive. In addition, the IC50 in series [2] was > 1000 µM.

Consider `Cc1cc(C)c2c(=O)c3cc(N)c(N4CCN(c5ccccn5)CC4)cc3n(C)c2c1C`, for which the EC50 in the series with Hepatitis C virus is 5 µg/mL (≈ 11.7 µM). For the same compound, the 50% cytotoxic concentration (CC50) at 72 h in series [1] is > 50 µg/mL. The result in the series with Hepacivirus hominis was inactive. The IC50 in series [2] was > 1000 µM.

For the compound `COc1cc(OC)c2c(=O)c3cc(N)c(N4CCN(c5ccc(C(F)(F)F)cn5)CC4)cc3n(C)c2c1`, in the series with Hepatitis C virus, the EC50 is > 50 µg/mL. The CC50 at 72 h in series [1] is > 50 µg/mL. Moreover, the result in the series on Hepacivirus hominis was inactive. Besides, the IC50 in series [2] is > 1000 µM.

For the compound `COc1cc(OC)c2c(=O)c3cc(N)c(N4CCN(c5ccccc5OC)CC4)cc3n(C)c2c1`, the EC50 with Hepatitis C virus is 16 µg/mL (≈ 33.7 µM). Further, in series [1], the CC50 at 72 h was > 50 µg/mL. Moreover, the outcome in the series with Hepacivirus hominis was inactive. In series [2], the IC50 was > 1000 µM.

Usually EC50 stands for the concentration at which the effect is half-maximal. The term CC50 denotes the concentration giving 50% cytotoxicity. A high value points to better tolerance by the cells. One may read the IC50 as the concentration at which inhibition is half-maximal. High values mean weaker potency, low ones greater potency.
